Results published in PMC5059851, “Inhibition of Hedgehog-dependent tumors and cancer stem cells by a newly identified naturally occurring chemotype” (Cell Death & Disease, 2016).
“Also recorded” adds a separate entry of the source.

Experiments:
[1] = system: Hh pathway (Gli-responsive firefly luciferase reporter); assay: Hh-dependent Gli-luciferase reporter assay in SAG-treated NIH3T3 Shh-Light II cells; type: cell-based; details: SAG (200 nM)-treated NIH3T3 Shh-Light II cells, 48 h, normalized to Renilla; N.A. = Not Active
Experimental: The inhibitory properties of the potential Smo antagonists 1–17 were investigated in a luciferase reporter assay that is widely used for characterizing Hh inhibitors. NIH3T3 Shh-Light II cells, stably incorporating a Gli-responsive firefly luciferase reporter (Gli-RE),[25] were treated with the synthetic Smo agonist SAG[24] alone or in combination with the selected small molecules to evaluate their dose–response ability to suppress Hh pathway. […] We excluded the possibility that inhibition activity in this assay was mediated by cytotoxicity because no decrease was shown in the luciferase assay control Renilla as observed instead for 13–17.
The luciferase assay was performed in Shh-Light II cells, stably incorporating a Gli-responsive luciferase reporter and the pRL-TK Renilla (normalization control), treated for 48 h with SAG (200 nM) and the studied compounds. Luciferase and Renilla activity were assayed with a dual-luciferase assay system according to the manufacturer's instruction (Biotium Inc., Hayward, CA, USA). Results are expressed as luciferase/Renilla ratios and represent the mean±S.D. of three experiments, each performed in triplicate.

AP1/Jun pathway = assay: AP1/Jun luciferase reporter assay (MMP1-luciferase reporter and c-Jun) in MEFs WT; type: cell-based, mouse; details: increasing concentrations, 24 h
Experimental: Figure 2 Compound 12 inhibits Hh signaling without affecting AP1/Jun and WNT/β-Catenin pathways. (a) The graphs show the Hh target genes expression levels in Ptch1^−/− MEFs treated for 48 h with 12 or DMSO as control. mRNA levels were determined by quantitative real-time PCR (qRT-PCR) normalized to endogenous control (β2-microglobulin and HPRT). Pfkfb3 gene was used as negative control. *P<0.05 versus CTR. (b and c) AP1/Jun and WNT/β-Catenin pathways activity were assayed in MEFs WT transfected with MMP1-luciferase reporter and c-Jun (b) or Top Flash-luciferase reporter and β-Catenin (c), respectively, in the presence or absence of increasing concentrations of compound 12. Treatment time was 24 h, and normalization was against Renilla luciferase.

[2] = system: murine Ptch1^+/− MB stem-like cells; assay: MB stem cells neurosphere-forming assay; type: cell-based, mouse; details: 7 days of treatment, increasing concentrations
Experimental: (§1) Figure 5 Compound 12 inhibition of Hh-dependent MB tumor cell growth. […] (a and b) After the indicated times, a trypan blue count was performed to determine the growth rate of viable cells. (c) Gli1 mRNA expression levels were determined by qRT-PCR normalized to endogenous control (β2-microglobulin and HPRT). (d–f) Compound 12 inhibits MB-SCs self-renewal. (d) Suspension of single MB-SCs isolated from Ptch1^+/− mice were cultured in stem cell medium to allow the formation of primary neurospheres. Primary neurospheres were dissociated and treated with increasing concentrations of compound 12, Cyclopamine or DMSO only. After 7 days of treatment, the number of secondary neurospheres derived from a known number of single cells was counted. The self-renewal MB-SCs' capability is expressed as percentage of neurosphere-forming cells. (e) Representative bright-field images of tumor neurospheres after compound 12 or Cyclopamine treatment are also shown. (f) MB-SCs isolated from Ptch1^+/− mice MBs were treated for 48 h with compound 12 or DMSO only. qRT-PCR analysis show Hh, proliferation and stemness target mRNA. For qRT-PCR, results were normalized to endogenous control (β2-microglobulin and HPRT). […]
Cell proliferation was evaluated by BrdU detection (Roche, Welwyn Garden City, UK). […] At least 500 nuclei were counted in triplicate, and the number of BrdU-positive nuclei was recorded. […]

[3] = system: Hh pathway readouts, stemness markers and growth genes in MB stem-like cells; assay: qRT-PCR of Hh, proliferation and stemness targets in MB stem-like cells; type: cell-based, mouse; details: 48 h
Experimental: as §1, with “cells.” for “cells. (e) Representative bright-field images of tumor neurospheres after compound 12 or Cyclopamine treatment are also shown. (f) MB-SCs isolated from Ptch1^+/− mice MBs were treated for 48 h with compound 12 or DMSO only. qRT-PCR analysis show Hh, proliferation and stemness target mRNA. For qRT-PCR, results were normalized to endogenous control (β2-microglobulin and HPRT).”
Total RNA was isolated with Trizol (Invitrogen/Life Technologies, Carlsbad, CA, USA) and reverse transcribed with SensiFAST cDNA Synthesis Kit (Bioline Reagents Limited, London, UK). Quantitative real-time PCR (Q-PCR) analysis of Gli1, Gli2, Ptch1, Bmp2, Pfkfb3, CycD1, CycD2, Pcna, Oct4, Nanog, β-2 microglobulin, β-actin and HPRT mRNA expression was performed on each cDNA sample using the VIIA7 Real Time PCR System employing Assay-on-Demand Reagents (Life Technologies). […]

ASZ001 BCC cells = assay: Trypan blue growth count of ASZ001 BCC cells; type: cell-based, mouse; details: compared with Cyclopamine, Vismodegib and LDE-225
Experimental: After the indicated times, a trypan blue count was performed to determine the growth rate.
Cell proliferation was evaluated by BrdU detection (Roche, Welwyn Garden City, UK). Briefly, after the BrdU pulse (24 h for GCPs) cells were fixed with 4% paraformaldehyde and permeabilized with 0.2% Triton X-100, and BrdU detection was performed according to the manufacturer's instructions. Nuclei were counterstained with Hoechst reagent. At least 500 nuclei were counted in triplicate, and the number of BrdU-positive nuclei was recorded. To determine the growth rate of viable cells, a trypan blue count was performed after a treatment period of 24–48–72 h with studied compound.

ASZ001 BCC allografts = assay: ASZ001 BCC allograft in NOD/SCID mice; type: in vivo, mouse; details: 50 mg/kg s.c. every second day, versus vehicle

COc1ccc(C=CC(=O)c2cc(OC)c(OC)cc2OC)cc1OC [Compound 12, 3-(3,4-dimethoxy-phenyl)-1-(2,4,5-trimethoxy-phenyl)-2-propen-1-one]
IC50 [1]: 4.44 µM
luciferase activity driven by Jun/AP1 signaling (AP1/Jun pathway): without affecting luciferase activity; also recorded: inactive
clonogenic self-renewal ability (neurosphere formation) [2]: suppressed
Hh pathway activity in MB stem-like cells (Gli1, Gli2, Ptch1, Nanog, Oct4, cyclins D1 and D2, Pcna mRNAs) [3]: reduced Hh pathway activity
ASZ001 BCC cell growth in vitro (ASZ001 BCC cells): significant efficacy to impair ASZ001 BCC cell growth
tumor cell growth (tumor volume) in BCC allograft (ASZ001 BCC allografts; 18 days): reduction of tumor cell growth
percentage of Ki67 labeling in allograft tumors (ASZ001 BCC allografts): decreased percentage of Ki67 labeling
